From ChEMBL document CHEMBL5579883, “Discovery of Novel Neo-Clerodane Derivatives as Potent Dual-Functional Antiosteoporosis Agents through Targeting Peroxisome Proliferator-Activated Receptor-γ” (J Med Chem, 2024)
Active and inactive are the calls of the source. No cut-off for these calls is given here.

Assays:
Mus musculus [1] = test: Anti-osteoporosis activity in OVX-induced osteoporosis C57BL/6J mouse model assessed as reduction in ACP5 level at 10 mg/kg, IG administered once a day for 4 weeks by ELISA method; format: functional, organism-based
Mus musculus [2] = test: Anti-osteoporosis activity in OVX-induced osteoporosis C57BL/6J mouse model assessed as reduction in PINP level at 10 mg/kg, IG administered once a day for 4 weeks by ELISA method; format: functional, organism-based
Mus musculus [3] = test: Anti-osteoporosis activity in OVX-induced osteoporosis C57BL/6J mouse model assessed as prevention of trabecular thickness decrease in femur at 10 mg/kg, IG administered once a day for 4 weeks by micro-CT scanning analysis; format: functional, organism-based
Mus musculus [4] = test: Anti-osteoporosis activity in OVX-induced osteoporosis C57BL/6J mouse model assessed as reduction in CTX-1 level at 10 mg/kg, IG administered once a day for 4 weeks by ELISA method; format: functional, organism-based
Mus musculus [5] = test: Anti-osteoporosis activity in OVX-induced osteoporosis C57BL/6J mouse model assessed as prevention of bone volume/[…] volume decrease in femur at 10 mg/kg, IG administered once a day for 4 weeks by micro-CT scanning analysis; format: functional, organism-based
BMDM [6] = test: Cytotoxicity against mouse Bone marrow macrophage at 10 uM measured after 72 hrs by MTT assay; format: toxicity, cell-based
Mus musculus [7] = test: Anti-osteoporosis activity in OVX-induced osteoporosis C57BL/6J mouse model assessed as recovery of serum estradiol level at 10 mg/kg, IG administered once a day for 4 weeks by ELISA method; format: functional, organism-based
Mus musculus [8] = test: Anti-osteoporosis activity in OVX-induced osteoporosis C57BL/6J mouse model assessed as prevention of increase in bone surface area/bone volume in femur at 10 mg/kg, IG administered once a day for 4 weeks by micro-CT scanning analysis; format: functional, organism-based
Mus musculus [9] = test: Anti-osteoporosis activity in OVX-induced osteoporosis C57BL/6J mouse model assessed as reduction in osteocalcin level at 10 mg/kg, IG administered once a day for 4 weeks by ELISA method; format: functional, organism-based
BMDM [10] = test: Inhibition of osteoclastogenesis in C57BL/6J mouse Bone marrow macrophage cells assessed as inhibition of RANKL-stimulated osteoclast formation measured after 6 days by tartrate-resistant acid phosphatase (TRAP) staining assay; conditions: 144 h
Mus musculus [11] = test: Anti-osteoporosis activity in C57BL/6J mouse model assessed as downregulation of OVX-induced TNF-alpha accumulation at 10 mg/kg, IG administered once a day for 4 weeks by ELISA method; format: functional, organism-based
BMDM [12] = test: cells; conditions: Mus musculus, 144 h, read-out: INH
Description: Inhibition of osteoclastogenesis in C57BL/6J mouse Bone marrow macrophage cells assessed as inhibition of RANKL-stimulated osteoclast formation at 10 uM measured after 6 days by tartrate-resistant acid phosphatase (TRAP) staining assay relative to control

Mus musculus [13] = test: Anti-osteoporosis activity in OVX-induced osteoporosis C57BL/6J mouse model assessed as prevention of trabecular number decrease in femur at 10 mg/kg, IG administered once a day for 4 weeks by micro-CT scanning analysis; format: functional, organism-based
Mus musculus [14] = test: Anti-osteoporosis activity in OVX-induced osteoporosis C57BL/6J mouse model assessed as reduction in RANKL level at 10 mg/kg, IG administered once a day for 4 weeks by ELISA method; format: functional, organism-based
Mus musculus [15] = test: Anti-osteoporosis activity in C57BL/6J mouse model assessed as downregulation of OVX-induced IL-6 accumulation at 10 mg/kg, IG administered once a day for 4 weeks by ELISA method; format: functional, organism-based
[16] = target: T1, Peroxisome proliferator-activated receptor gamma (Homo sapiens, UniProt P37231); test: Antagonist activity at PPAR gamma LBD (203 to 476 residues) (unknown origin) expressed in HEK293T cells co-transfected with pCMV-GAL4-PPARgamma-LBD-SV40-Renilla-luciferase assessed as reduction of rosiglitazone induced PPAR-gamma activation incubated for 24 hrs by dural-luciferase reporter assay; format: cell-based
T1 sequence (P37231 whole entry): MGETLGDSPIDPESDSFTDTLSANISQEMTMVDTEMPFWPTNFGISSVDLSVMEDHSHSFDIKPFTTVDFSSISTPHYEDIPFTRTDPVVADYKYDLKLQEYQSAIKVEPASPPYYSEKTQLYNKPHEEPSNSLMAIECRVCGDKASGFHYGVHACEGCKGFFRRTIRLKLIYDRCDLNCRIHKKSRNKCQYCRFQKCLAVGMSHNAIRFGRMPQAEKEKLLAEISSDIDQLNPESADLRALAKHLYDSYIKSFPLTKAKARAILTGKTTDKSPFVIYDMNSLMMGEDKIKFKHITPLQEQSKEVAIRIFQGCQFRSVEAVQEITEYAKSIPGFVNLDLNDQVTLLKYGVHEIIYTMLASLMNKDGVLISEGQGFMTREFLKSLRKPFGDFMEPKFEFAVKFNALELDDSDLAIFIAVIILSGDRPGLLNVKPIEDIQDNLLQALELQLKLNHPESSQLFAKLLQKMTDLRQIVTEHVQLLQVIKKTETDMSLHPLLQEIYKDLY

[17] = target: Nuclear receptor corepressor 1 (Homo sapiens) (UniProt O75376); test: Effect on NCoR recruitment (unknown origin) at 10 uM incubated for 24 hrs by TR-FRET assay
BMDM [18] = test: Inhibition of osteoclastogenesis in C57BL/6J mouse Bone marrow macrophage cells assessed as inhibition of RANKL-stimulated osteoclast formation at 10 uM measured after 7 days by tartrate-resistant acid phosphatase (TRAP) staining assay; format: functional, cell-based; conditions: time 7.0 day
[19] = target: T1, Peroxisome proliferator-activated receptor gamma; test: Binding affinity to PPAR gamma LBD (203 to 476 residues) (unknown origin) extracted from Escherichia coli BL21 (DE3) cells assessed as dissociation constant by Isothermal titration calorimetry method
BMDM [20] = test: Inhibition of osteoclastogenesis in C57BL/6J mouse Bone marrow macrophage cells assessed as inhibition of RANKL-stimulated osteoclast formation at 10 uM measured after 7 days in presence of rosiglitazone by tartrate-resistant acid phosphatase (TRAP) staining assay; format: functional, cell-based; conditions: time 7.0 day
[21] = target: T1, Peroxisome proliferator-activated receptor gamma; test: Binding affinity to PPAR gamma LBD (203 to 476 residues) (unknown origin) extracted from Escherichia coli BL21 (DE3) cells assessed as dissociation constant in presence of rosiglitazone by Isothermal titration calorimetry method
[22] = target: T2, Peroxisome proliferator-activated receptor gamma coactivator 1-alpha (Homo sapiens) (UniProt Q9UBK2); test: Effect on PGC-1 alpha recruitment (unknown origin) incubated for 24 hrs at 10 uM by TR-FRET assay
T2 sequence (whole entry): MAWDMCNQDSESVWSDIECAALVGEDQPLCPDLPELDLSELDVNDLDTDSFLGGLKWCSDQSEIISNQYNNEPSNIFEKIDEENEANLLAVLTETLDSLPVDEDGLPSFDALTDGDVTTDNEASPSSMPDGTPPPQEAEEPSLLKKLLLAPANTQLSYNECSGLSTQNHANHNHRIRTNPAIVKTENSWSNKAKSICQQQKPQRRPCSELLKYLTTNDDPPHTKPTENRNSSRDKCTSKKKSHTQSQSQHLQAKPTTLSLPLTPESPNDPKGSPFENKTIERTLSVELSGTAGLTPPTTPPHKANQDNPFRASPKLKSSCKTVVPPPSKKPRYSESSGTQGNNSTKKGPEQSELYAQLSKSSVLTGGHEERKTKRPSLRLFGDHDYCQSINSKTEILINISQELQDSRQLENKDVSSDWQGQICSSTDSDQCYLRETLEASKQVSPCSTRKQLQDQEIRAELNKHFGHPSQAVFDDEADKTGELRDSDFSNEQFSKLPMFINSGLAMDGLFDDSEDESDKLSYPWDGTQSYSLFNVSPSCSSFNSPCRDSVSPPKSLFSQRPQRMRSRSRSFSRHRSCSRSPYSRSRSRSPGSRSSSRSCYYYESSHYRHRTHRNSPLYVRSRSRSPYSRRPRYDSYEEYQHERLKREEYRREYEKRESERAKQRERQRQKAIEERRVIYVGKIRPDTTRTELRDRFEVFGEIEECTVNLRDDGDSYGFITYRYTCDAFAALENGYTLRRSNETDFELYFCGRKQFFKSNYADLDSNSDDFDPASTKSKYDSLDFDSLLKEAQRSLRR

Nuclear receptor corepressor 1 (Homo sapiens), sequence (O75376 whole entry): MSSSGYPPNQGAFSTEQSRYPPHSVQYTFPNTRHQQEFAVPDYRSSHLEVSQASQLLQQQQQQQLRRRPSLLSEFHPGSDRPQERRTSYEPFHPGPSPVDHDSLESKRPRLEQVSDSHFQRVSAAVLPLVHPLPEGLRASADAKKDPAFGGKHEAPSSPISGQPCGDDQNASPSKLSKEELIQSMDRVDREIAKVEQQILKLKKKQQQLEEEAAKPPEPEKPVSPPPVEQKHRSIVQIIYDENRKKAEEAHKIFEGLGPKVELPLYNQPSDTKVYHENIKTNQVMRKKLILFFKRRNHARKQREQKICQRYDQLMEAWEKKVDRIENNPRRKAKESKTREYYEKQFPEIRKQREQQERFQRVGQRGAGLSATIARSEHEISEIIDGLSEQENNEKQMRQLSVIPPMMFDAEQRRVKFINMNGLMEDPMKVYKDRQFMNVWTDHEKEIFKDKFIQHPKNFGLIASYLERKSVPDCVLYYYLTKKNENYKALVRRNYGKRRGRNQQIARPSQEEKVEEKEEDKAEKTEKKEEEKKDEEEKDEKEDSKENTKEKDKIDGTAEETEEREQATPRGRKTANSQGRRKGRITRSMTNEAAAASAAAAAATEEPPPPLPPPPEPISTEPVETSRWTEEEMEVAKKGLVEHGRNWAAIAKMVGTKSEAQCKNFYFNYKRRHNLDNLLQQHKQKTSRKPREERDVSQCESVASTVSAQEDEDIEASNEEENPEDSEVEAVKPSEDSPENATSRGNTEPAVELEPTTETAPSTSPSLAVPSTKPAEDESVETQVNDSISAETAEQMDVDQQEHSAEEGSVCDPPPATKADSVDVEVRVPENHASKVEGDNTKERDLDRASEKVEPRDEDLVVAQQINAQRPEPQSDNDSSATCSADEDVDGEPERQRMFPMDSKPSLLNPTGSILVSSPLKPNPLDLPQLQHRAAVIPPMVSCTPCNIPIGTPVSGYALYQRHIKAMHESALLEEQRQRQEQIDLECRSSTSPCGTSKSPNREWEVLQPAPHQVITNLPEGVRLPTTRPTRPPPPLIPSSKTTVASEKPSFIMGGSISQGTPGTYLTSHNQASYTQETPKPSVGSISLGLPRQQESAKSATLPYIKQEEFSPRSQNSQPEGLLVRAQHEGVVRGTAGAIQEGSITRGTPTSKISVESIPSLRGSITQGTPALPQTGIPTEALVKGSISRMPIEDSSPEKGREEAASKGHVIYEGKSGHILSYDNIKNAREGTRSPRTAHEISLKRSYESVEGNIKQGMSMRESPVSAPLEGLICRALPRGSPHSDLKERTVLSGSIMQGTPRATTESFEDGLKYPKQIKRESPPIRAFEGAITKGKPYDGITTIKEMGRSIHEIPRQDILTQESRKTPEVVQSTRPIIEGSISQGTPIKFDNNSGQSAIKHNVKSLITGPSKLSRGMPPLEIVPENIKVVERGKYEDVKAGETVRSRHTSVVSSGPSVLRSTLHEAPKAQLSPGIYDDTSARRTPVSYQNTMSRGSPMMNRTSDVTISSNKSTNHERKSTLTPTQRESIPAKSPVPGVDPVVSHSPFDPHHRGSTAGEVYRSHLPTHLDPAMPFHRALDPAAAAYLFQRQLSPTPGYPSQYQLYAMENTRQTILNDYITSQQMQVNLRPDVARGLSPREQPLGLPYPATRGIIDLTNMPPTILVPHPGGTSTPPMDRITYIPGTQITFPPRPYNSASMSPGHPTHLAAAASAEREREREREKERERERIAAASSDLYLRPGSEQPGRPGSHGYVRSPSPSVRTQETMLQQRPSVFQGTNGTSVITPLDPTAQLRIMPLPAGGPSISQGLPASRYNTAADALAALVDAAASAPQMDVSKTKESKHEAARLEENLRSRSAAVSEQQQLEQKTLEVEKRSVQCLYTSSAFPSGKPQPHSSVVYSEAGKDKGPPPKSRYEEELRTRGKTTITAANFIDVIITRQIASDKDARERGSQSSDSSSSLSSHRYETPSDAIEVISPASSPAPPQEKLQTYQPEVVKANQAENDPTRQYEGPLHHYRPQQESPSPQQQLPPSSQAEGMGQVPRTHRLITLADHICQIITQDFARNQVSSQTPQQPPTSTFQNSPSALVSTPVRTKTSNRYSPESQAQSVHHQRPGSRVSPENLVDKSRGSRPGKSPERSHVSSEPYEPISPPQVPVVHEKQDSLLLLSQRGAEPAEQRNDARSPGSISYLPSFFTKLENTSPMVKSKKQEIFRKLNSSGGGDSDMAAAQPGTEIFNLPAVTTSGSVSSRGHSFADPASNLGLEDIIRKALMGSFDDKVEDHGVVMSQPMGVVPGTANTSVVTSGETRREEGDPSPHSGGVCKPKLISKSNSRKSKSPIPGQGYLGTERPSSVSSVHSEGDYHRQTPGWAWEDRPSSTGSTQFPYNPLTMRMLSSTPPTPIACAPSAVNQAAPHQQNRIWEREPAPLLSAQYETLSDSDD

Row | SMILES | Activity (BMDM [6]) | IC50 (BMDM [10]) [µM] | inhibition at 10 µM (BMDM [12]) [%] | IC50 [16] [µM] | Activity [17] | inhibition (BMDM [18]) | Kd [19] [µM] | inhibition (BMDM [20]) | Kd [21] [µM] | Activity [22] | further results
1 | CCC(C)C(=O)O[C@@H](C[C@@]1(C)[C@H](C)C[C@H](OC(C)=O)[C@]2(COC(C)=O)[C@@H]1CCC[C@]21CO1)C1=CC(=O)OC1 (stereo partly drawn) | Non-Toxic | 1.42 | > 50 | 12.2 | – | – | – | – | – | – | Activity (Mus musculus [1]): Active; Activity (Mus musculus [2]): Active; Activity (Mus musculus [3]): Active; Activity (Mus musculus [4]): Active; Activity (Mus musculus [5]): Active; Activity (Mus musculus [7]): Active; Activity (Mus musculus [8]): Active; Activity (Mus musculus [9]): Active; Activity (Mus musculus [11]): Active; Activity (Mus musculus [13]): Active; Activity (Mus musculus [14]): Active; Activity (Mus musculus [15]): Active
2 | C/C=C(\C)C(=O)O[C@@H](C[C@@]1(C)[C@H](C)C[C@H](OC(C)=O)[C@]2(COC(C)=O)[C@@H]1CCC[C@]21CO1)C1=CC(=O)OC1 [AJUGANIPPONIN B] | Non-Toxic | 0.97 | > 50 | 6.99 | inactive | Active | 16 | Active | 127 | inactive | –
3 | C/C=C(\C)C(=O)OC[C@@]12[C@@H](OC(C)=O)C[C@@H](C)[C@](C)(CCC3=CC(=O)OC3)[C@H]1CCC[C@]21CO1 [AJUGACUMBIN A] | Non-Toxic | 1.92 | > 50 | 8.35 | inactive | Active | 17.7 | Active | 79.5 | inactive | –
4 | C/C=C(\C)C(=O)OC[C@@]12[C@H](CCC[C@]13CO3)[C@@](C)(C[C@H](O)C1=CC(=O)OC1)[C@H](C)C[C@@H]2O | Non-Toxic | 3.23 | > 50 | 11.5 | – | – | – | – | – | – | –
5 | C/C=C(\C)C(=O)OC[C@@]12[C@H](CCC[C@]1(O)CCl)[C@@](C)(CCC1=CC(=O)OC1)[C@H](C)C[C@@H]2O | Non-Toxic | 1.77 | > 50 | 10.4 | – | – | – | – | – | – | –
6 | CC(=O)OC[C@@]12[C@@H](OC(C)=O)C[C@@H](C)[C@](C)(C[C@H](OC(C)=O)C3=CC(=O)OC3)[C@H]1[C@H](O)CC[C@]21CO1 | Non-Toxic | 5.1 | > 50 | 13 | – | – | – | – | – | – | –
